These compounds were tested against Rhesus PDE2A3 (Macaca mulatta, UniProt B3VTJ2) (assay: PDE2 fluorescence polarization (IMAP FP) inhibition assay, rhesus PDE2A3). Settings: @ 1 μM; Lab A; read-out: Rhesus PDE2 % inhibition at a given concentration - Lab A.
Format: biochemical, rhesus macaque
Method: A Labcyte Echo 555 (Labcyte, Sunnyvale, Calif.) is used to dispense 200 nL from each well of the titration plate to the 384 well assay plate. Ten microliters of a solution of enzyme (1/2000 final dilution from aliquots; sufficient to produce 20% substrate conversion) was added to the assay plate. Next 10 uL of a separate solution of the substrate FAM-labeled cAMP (50 nM final concentration product # R^7506 from Molecular Devices) and the activator cGMP (1 uM final concentration), prepared in the assay buffer (10 mM Tris HCl, pH 7.2, 10 mM MgCl2, 0.05% NaN3 0.01% Tween-20, and 1 mM DTT) was added to the assay plate and shaken to mix. The reaction is allowed to proceed at room temperature for 60 minutes. A binding solution is then made from the kit components, comprised of 80% Solution A, 20% Solution B and binding reagent at a volume of 1/600 the total binding solution. The enzymatic reaction is stopped by addition of 60 μL of the binding solution to each well of the assay plates and the plates are sealed and shaken for 30 seconds. The plate was incubated at room temperature for at least one hour prior to determining the fluorescence polarization (FP). The parallel and perpendicular fluorescence of each well of the plate was measured using a Tecan Genios Pro plate reader (Tecan, Switzerland) or Perkin Elmer EnVision™ plate reader (Waltham, Mass.). Fluorescence polarization (mP) was calculated from the parallel (S) and perpendicular (P) fluorescence of each sample well and the analogous values for the median control well, containing only substrate (So and Po), using the following equation: Polarization (mP)=1000*(S/So−P/Po)/(S/So+P/Po).
Dose-inhibition profiles for each compound were characterized by fitting the mP data to a four-parameter equation given below.
An apparent (KM) for FAM-labeled cAMP of ˜10 uM was used.

Rhesus PDE2A3, sequence (B3VTJ2 1-941): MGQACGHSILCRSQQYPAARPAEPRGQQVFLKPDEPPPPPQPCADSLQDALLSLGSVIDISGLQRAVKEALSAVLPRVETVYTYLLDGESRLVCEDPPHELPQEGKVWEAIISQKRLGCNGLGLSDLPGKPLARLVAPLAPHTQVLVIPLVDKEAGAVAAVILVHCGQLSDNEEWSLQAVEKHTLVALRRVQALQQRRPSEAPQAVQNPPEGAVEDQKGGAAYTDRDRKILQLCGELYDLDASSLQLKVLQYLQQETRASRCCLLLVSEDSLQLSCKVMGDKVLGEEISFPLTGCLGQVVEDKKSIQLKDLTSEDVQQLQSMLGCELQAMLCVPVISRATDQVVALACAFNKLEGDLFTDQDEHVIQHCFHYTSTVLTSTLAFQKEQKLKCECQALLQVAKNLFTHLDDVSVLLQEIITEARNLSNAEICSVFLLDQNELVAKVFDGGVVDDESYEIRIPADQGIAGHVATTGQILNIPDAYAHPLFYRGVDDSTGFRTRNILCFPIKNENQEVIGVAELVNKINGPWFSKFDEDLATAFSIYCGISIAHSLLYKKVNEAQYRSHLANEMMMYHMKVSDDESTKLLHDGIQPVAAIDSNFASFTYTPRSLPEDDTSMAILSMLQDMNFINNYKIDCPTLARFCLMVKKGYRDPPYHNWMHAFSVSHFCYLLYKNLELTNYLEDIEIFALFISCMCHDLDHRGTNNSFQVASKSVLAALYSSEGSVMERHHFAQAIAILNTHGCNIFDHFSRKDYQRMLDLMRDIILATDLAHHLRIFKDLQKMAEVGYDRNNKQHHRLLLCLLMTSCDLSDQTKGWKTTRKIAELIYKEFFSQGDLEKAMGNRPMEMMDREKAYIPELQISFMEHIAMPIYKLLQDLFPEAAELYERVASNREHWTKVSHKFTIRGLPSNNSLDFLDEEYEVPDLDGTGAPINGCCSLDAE

inhibition at 1 µM | SMILES
25% | Cc1cnn(-c2nc(C(=O)N[C@H](C)c3ccc(C(F)(F)F)cc3)cc(=O)[nH]2)c1 [Example 7, (R)-2-(4-methyl-1H-pyrazol-1-yl)-6-oxo-N-(1-(4-(trifluoromethyl)phenyl)ethyl)-1,6-dihydropyrimidine-4-carboxamide]
30% | Cc1ccn(-c2nc(C(=O)N[C@H](C)c3ccc(C(F)(F)F)cc3)cc(=O)[nH]2)n1 [Example 8, (R)-2-(3-methyl-1H-pyrazol-1-yl)-6-oxo-N-(1-(4-(trifluoromethyl)phenyl)ethyl)-1,6-dihydropyrimidine-4-carboxamide]
26% | C[C@@H](NC(=O)c1cc(=O)[nH]c(-n2cccn2)n1)c1ccc(C(F)(F)F)cc1 [Example 9, (R)-6-oxo-2-(1H-pyrazol-1-yl)-N-(1-(4-(trifluoromethyl)phenyl)ethyl)-1,6-dihydropyrimidine-4-carboxamide]

Same assay, conditions: Lab A; read-out: Rhesus PDE2 Ki (nM) - Lab A

Ki | SMILES
13300 nM | CSc1nc(C(=O)N[C@@H](C)c2ccc(C(F)(F)F)cc2)cc(=O)[nH]1 [Example 16, (S)-2-(methylthio)-6-oxo-N-(1-(4-(trifluoromethyl)phenyl)ethyl)-1,6-dihydropyrimidine-4-carboxamide]

Same assay, conditions: Rhesus PDE2 Ki (nM) - Lab B, Lab B

SMILES | Ki
CC(C)C(C)(NC(=O)c1cc(=O)[nH]c(N(C)C)n1)c1ccc(S(F)(F)(F)(F)F)cc1 (single isomer, unassigned) [Example 172, (R)- or (S)-2-dimethylamino)-N-{1,2-dimethyl-1-[4-(pentafluoro-λ^6-sulfanyl)phenyl]propyl}-6-oxo-1,6-dihydropyrimidine-4-carboxamide] | 154 nM

What follows are compounds tested against human PDE2A1 (Homo sapiens (Human), UniProt O00408) (assay: PDE2 IMAP FP inhibition assay, human PDE2A1 (selectivity panel format)). Settings: Lab A; read-out: Human PDE2 Ki (nM) - Lab A.
human PDE2A1, sequence (O00408 other isoform, or with tags, fused parts or gaps): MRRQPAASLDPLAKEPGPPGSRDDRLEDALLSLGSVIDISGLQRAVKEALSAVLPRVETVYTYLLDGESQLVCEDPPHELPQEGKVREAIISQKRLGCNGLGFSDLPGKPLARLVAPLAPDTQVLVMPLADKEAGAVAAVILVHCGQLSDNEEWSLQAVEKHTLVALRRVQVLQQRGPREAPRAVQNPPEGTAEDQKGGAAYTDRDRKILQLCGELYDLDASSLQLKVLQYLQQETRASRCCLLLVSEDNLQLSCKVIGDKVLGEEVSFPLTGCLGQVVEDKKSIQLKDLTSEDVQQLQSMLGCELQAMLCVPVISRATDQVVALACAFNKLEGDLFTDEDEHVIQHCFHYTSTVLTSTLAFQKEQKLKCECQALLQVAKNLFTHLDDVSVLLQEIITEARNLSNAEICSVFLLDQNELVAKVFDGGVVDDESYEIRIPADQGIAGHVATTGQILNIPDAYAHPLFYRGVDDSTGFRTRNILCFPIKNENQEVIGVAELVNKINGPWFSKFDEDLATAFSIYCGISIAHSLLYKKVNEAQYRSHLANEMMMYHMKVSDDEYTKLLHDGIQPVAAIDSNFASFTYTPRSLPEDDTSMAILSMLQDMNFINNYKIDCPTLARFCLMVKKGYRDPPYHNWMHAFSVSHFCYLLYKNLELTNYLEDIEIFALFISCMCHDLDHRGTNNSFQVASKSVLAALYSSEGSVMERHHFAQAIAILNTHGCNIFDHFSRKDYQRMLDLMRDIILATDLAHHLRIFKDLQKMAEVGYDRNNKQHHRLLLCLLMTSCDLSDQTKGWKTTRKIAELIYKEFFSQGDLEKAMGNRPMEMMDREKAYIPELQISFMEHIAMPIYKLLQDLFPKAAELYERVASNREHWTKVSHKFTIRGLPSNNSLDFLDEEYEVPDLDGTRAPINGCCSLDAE
Format: biochemical
Method: Selectivity for PDE2, as compared to other PDE families, was assessed using the IMAP® technology. Human PDE10A2 enzyme was prepared from cytosolic fractions of transiently transfected HEK cells.
A Labcyte POD 810 (Labcyte, Sunnyvale, Calif.) was used to dispense 200 nL from each well of the titration plate to make eleven copies of the assay plate for each titration, one copy for each PDE enzyme. A solution of each enzyme (dilution from aliquots, sufficient to produce 20% substrate conversion) and a separate solution of FAM-labeled cAMP or FAM-labeled cGMP from Molecular Devices (Sunnyvale, Calif., product # R7506 or cGMP#R7508), at a final concentration of 50 nM were made in the assay buffer (10 mM Tris HCl, pH 7.2, 10 mM MgCl2, 0.05% NaN3 0.01% Tween-20, and 1 mM DTT). Note that the substrate for PDE2 is 50 nM FAM cAMP containing 1000 nM of cGMP. The enzyme and the substrate were then added to the assay plates in two consecutive additions of 10 μL and then shaken to mix. The reaction was allowed to proceed at room temperature for 60 minutes. A binding solution was then made from the kit components, comprised of 80% Solution A, 20% Solution B and binding reagent at a volume of 1/600 the total binding solution. The enzymatic reaction was stopped by addition of 60 μL of the binding solution to each well of the assay plate. The plates were sealed and shaken for 10 seconds. The plates were incubated at room temperature for one hour, then the parallel and perpendicular fluorescence was measured using a Tecan Genios Pro plate reader (Tecan, Switzerland). […] The intrinsic PDE2 inhibitory activity of a compound which may be used in accordance with the present invention may be determined by these assays. […]

SMILES | Ki
CC(C)[C@@H](NC(=O)c1cc(=O)[nH]c(N2CC[C@@H](O)C2)n1)c1ccc(OC(F)(F)F)c(F)c1 [Example 166, N-{(1R)-1-[3-fluoro-4-(trifluoromethoxy)phenyl]-2-methylpropyl}-2-[(3R)-3-hydroxypyrrolidin-1-yl]-6-oxo-1,6-dihydropyrimidine-4-carboxamide] | 1.3 nM

Same assay, conditions: Lab B; read-out: Human PDE2 Ki (nM) - Lab B

SMILES | Ki
CN(C)c1nc(C(=O)NC(c2ccccc2)c2ccc(C(F)(F)F)cc2)cc(=O)[nH]1 (stereo not drawn) [Example 195, 2-(dimethylamino)-6-oxo-N-{phenyl[4-(trifluoromethyl)phenyl]methyl}-1,6-dihydropyrimidine-4-carboxamide] | 81 nM
CN(C)c1nc(C(=O)NC(c2ccncc2)c2ccc(C(F)(F)F)cc2)cc(=O)[nH]1 (stereo not drawn) [Example 196, 2-(dimethylamino)-6-oxo-N-{pyridin-4-yl[4-(trifluoromethyl)phenyl]methyl}-1,6-dihydropyrimidine-4-carboxamide] | 91 nM
CN(C)c1nc(C(=O)N[C@H]2COCc3cc(C(F)(F)F)ccc32)cc(=O)[nH]1 [Example 198, 2-(dimethylamino)-6-oxo-N-[(4R)-7-(trifluoromethyl)-3,4-dihydro-1H-isochromen-4-yl]-1,6-dihydropyrimidine-4-carboxamide] | 863 nM
CN(C)c1nc(C(=O)NC(C#N)c2ccc(C(F)(F)F)cc2)cc(=O)[nH]1 (stereo not drawn) [Example 199, N-{cyano[4-(trifluoromethyl)phenyl]methyl}-2-(dimethylamino)-6-oxo-1,6-dihydropyrimidine-4-carboxamide] | 27 nM
CN(C)c1nc(C(=O)NC(CC#N)c2ccc(C(F)(F)F)cc2)cc(=O)[nH]1 (stereo not drawn) [Example 203, N-{2-cyano-1-[4-(trifluoromethyl)phenyl]ethyl}-2-(dimethylamino)-6-oxo-1,6-dihydropyrimidine-4-carboxamide] | 22 nM
CN(C)c1nc(C(=O)N[C@H]2CCCc3cc(C(F)(F)F)ccc32)cc(=O)[nH]1 [Example 204, 2-(dimethylamino)-6-oxo-N-[(1S)-6-(trifluoromethyl)-1,2,3,4-tetrahydronaphthalen-1-yl]-1,6-dihydropyrimidine-4-carboxamide] | 129 nM
COC(=O)C(NC(=O)c1cc(=O)[nH]c(N(C)C)n1)c1ccc(C(F)(F)F)cc1 (stereo not drawn) [Example 205, methyl ({[2-(dimethylamino)-6-oxo-1,6-dihydropyrimidin-4-yl]carbonyl}amino)[4-(trifluoromethyl)phenyl]acetate] | 49 nM

Second part, the compound after the results:

Ki | SMILES
3.6 nM | CC(=O)C(NC(=O)c1cc(=O)[nH]c(N(C)C)n1)c1ccc(C(F)(F)F)cc1 (stereo not drawn) [Example 197, 2-(dimethylamino)-6-oxo-N-{2-oxo-1-[4-(trifluoromethyl)phenyl]propyl}-1,6-dihydropyrimidine-4-carboxamide]
0.52 nM | CN(C)c1nc(C(=O)N[C@](C)(CO)c2ccc(C(F)(F)F)cc2Cl)cc(=O)[nH]1 [Example 200, N-{(1S)-1-[2-chloro-4-(trifluoromethyl)phenyl]-2-hydroxy-1-methylethyl}-2-(dimethylamino)-6-oxo-1,6-dihydropyrimidine-4-carboxamide]
18 nM | CN(C)c1nc(C(=O)NC2(c3ccc(OC(F)(F)F)cc3)CCC2)cc(=O)[nH]1 [Example 201, 2-(dimethylamino)-6-oxo-N-{1-[4-(trifluoromethoxy)phenyl]cyclobutyl}-1,6-dihydropyrimidine-4-carboxamide]
5.4 nM | CN(C)c1nc(C(=O)NC2(c3ccc(C(F)(F)F)cc3)CCCC2)cc(=O)[nH]1 [Example 202, 2-(dimethylamino)-6-oxo-N-{1-[4-(trifluoromethyl)phenyl]cyclopentyl}-1,6-dihydro-pyrimidine-4-carboxamide]
7.2 nM | CN(C)c1nc(C(=O)NC(CO)c2ccc(C(F)(F)F)cc2)cc(=O)[nH]1 (stereo not drawn) [Example 206, 2-(dimethylamino)-N-{2-hydroxy-1-[4-(trifluoromethyl)phenyl]ethyl}-6-oxo-1,6-dihydropyrimidine-4-carboxamide]
2.9 nM | CN(C)c1nc(C(=O)NC(c2ccc(C(F)(F)F)cc2)C(F)(F)F)cc(=O)[nH]1 (stereo not drawn) [Example 207, 2-(dimethylamino)-6-oxo-N-{2,2,2-trifluoro-1-[4-(trifluoromethyl)phenyl]ethyl}-1,6-dihydropyrimidine-4-carboxamide]
0.12 nM | CN(C)c1nc(C(=O)N[C@@H](c2ccc(OC(F)(F)F)c(F)c2)C(C)(C)O)cc(=O)[nH]1 [Example 208, 2-(dimethylamino)-N-{(1S)-1-[3-fluoro-4-(trifluoromethoxy)phenyl]-2-hydroxy-2-methylpropyl}-6-oxo-1,6-dihydropyrimidine-4-carboxamide]
3.9 nM | CN(C)c1nc(C(=O)N[C@@](C)(CO)c2ccc(C(F)(F)F)cc2Cl)cc(=O)[nH]1 [Example 209, N-{(1R)-1-[2-chloro-4-(trifluoromethyl)phenyl]-2-hydroxy-1-methylethyl}-2-(dimethylamino)-6-oxo-1,6-dihydropyrimidine-4-carboxamide]
0.54 nM | CN(C)c1nc(C(=O)N[C@@H](c2ccc(OC(F)(F)F)cc2Cl)C(C)(C)O)cc(=O)[nH]1 [Example 210, N-{(1S)-1-[2-chloro-4-(trifluoromethoxy)phenyl]-2-hydroxy-2-methylpropyl}-2-(dimethylamino)-6-oxo-1,6-dihydropyrimidine-4-carboxamide]
0.073 nM | CN(C)c1nc(C(=O)N[C@@H](c2ccc(S(F)(F)(F)(F)F)cc2)C(C)(C)O)cc(=O)[nH]1 [Example 211, 2-(dimethylamino)-N-{(1S)-2-hydroxy-2-methyl-1-[4-(pentafluoro-λ^6-sulfanyl)phenyl]propyl}-6-oxo-1,6-dihydropyrimidine-4-carboxamide]
9.2 nM | CN(C)c1nc(C(=O)NC2(c3ccc(C(F)(F)F)cc3)COC2)cc(=O)[nH]1 [Example 212, 2-(dimethylamino)-6-oxo-N-{3-[4-(trifluoromethyl)phenyl]oxetan-3-yl}-1,6-dihydropyrimidine-4-carboxamide]

— patent US10285989B2, “Pyrimidinone amide compounds as PDE2 inhibitors” (Merck Sharp & Dohme Corp., priority 2015, dated 2019)
